The source of these data is ChEMBL document CHEMBL5230130, “COVID-19 therapy: What weapons do we bring into battle?” (Bioorg Med Chem, 2020).

Broadly, the pEC50 is the negative decadic logarithm of the EC50, by convention in mol/L. One may read the pIC50 as the negative decadic logarithm of the IC50, by convention in mol/L. The term IC50 denotes the point on the concentration scale where inhibition reaches its midpoint. In general, inhibition refers to the relative decrease from the control value, in per cent. The CC50 is the concentration that lowers cell viability or growth by half.

In data set [1] the test system is Middle East respiratory syndrome-related coronavirus. The data set is described as follows: Antiviral activity against MERS-CoV infected in African green monkey Vero E6 cells assessed as reduction in virus-induced cytopathic effect incubated for 48 hrs by celltiterglo assay. It is filed as functional, organism-based. The note with it: Vero C1008, 48 h. (In general: Cytopathic effects are the visible damage that an infection or toxin causes in cultured cells.)

Data set [2] relates to SARS-CoV. The data set can be described thus: Antiviral activity against SARS-COV infected in African green monkey Vero E6 cells assessed as reduction in virus-induced cytopathic effect incubated for 48 hrs by celltiterglo assay. Particulars: Severe acute respiratory syndrome-related coronavirus, Vero C1008, 48 h. The data set is classed as functional, organism-based.
In data set [3] the test system is SARS-CoV-2. The data set can be described thus: Antiviral activity against SARS-COV-2 infected in African green monkey Vero E6 cells. The data set is classed as functional, organism-based. The note with it: Severe acute respiratory syndrome coronavirus 2, Vero C1008.
In data set [4] the test system is SARS-CoV-2. The data set can be described thus: Antiviral activity against SARS-COV 2. The data set is classed as functional, organism-based. Particulars: Severe acute respiratory syndrome coronavirus 2.
Data set [5] deals with Canine coronavirus. The data set is described as follows: Antiviral activity against Canine coronavirus S-378 infected in dog A-72 cells. The data set is classed as functional, organism-based. Particulars: Alphacoronavirus 1, S-378, A-72.
A short description of data set [6]: Inhibition of Bovine coronavirus nucleoprotein.
Data set [7] can be described thus: Inhibition of human enteric coronavirus strain 4408 nucleoprotein.
In data set [8] the test system is Peritoneal macrophage. The data set can be described thus: Anti-inflammatory activity against mouse peritoneal macrophages assessed as reduction in LPS induced IL-6 level by ELISA analysis. The data set is classed as functional, cell-based. In general terms: In an ELISA, binding on a coated surface is turned into a signal by an enzyme label.
In data set [9] the test system is RAW264.7. The data set can be described thus: Anti-inflammatory activity against mouse RAW264.7 cells assessed as reduction in LPS induced IL-6 level by ELISA analysis. The data set is classed as functional, cell-based.
The test system of data set [10] is SARS-CoV-2. The data set is described as follows: Antiviral activity against SARS-COV-2 infected in African green monkey Vero E6 cells assessed as inhibition of viral growth at 0.195 uM relative to control. The note with it: Severe acute respiratory syndrome coronavirus 2, Vero C1008. It is filed as functional.
Data set [11] relates to SARS-CoV-2. The data set can be described thus: Antiviral activity against SARS-COV-2 Australia/VIC01/2020 infected in African green monkey Vero cells by RT-PCR assay. The data set is classed as functional, organism-based, Severe acute respiratory syndrome coronavirus 2.
Data set [12] in a line: Antiviral activity against hCoV-EMC/2012 infected in African green monkey Vero cells assessed as reduction in virus-induced cytopathic effect incubated for 24 hrs by […] assay. It is filed as functional, cell-based, Human betacoronavirus 2c EMC/2012. Particulars: Middle East respiratory syndrome-related coronavirus.
Data set [13] can be described thus: Antiviral activity against hCoV-EMC/2012 infected in monkey LLC-MK2 cells assessed as reduction in viral titers. The data set is classed as functional, Human betacoronavirus 2c EMC/2012.
Data set [14] can be described thus: Cytotoxicity against African green monkey Vero E6 cells assessed as cell growth inhibition measured after 48 hrs by CCK-8 assay. It is filed as toxicity, cell-based, Vero C1008. Particulars: chlorocebus sabaeus. On the technique in general: Tetrazolium dyes change colour on reduction, which living cells bring about.
Data set [15] has as its system SARS-CoV-2. The data set can be described thus: Antiviral activity against SARS-CoV-2 nCoV-2019 BetaCoV/Wuhan/WIV04/2019 infected in African green monkey Vero E6 cells assessed as reduction in virus-induced cytopathic effect incubated for 48 hrs by qRT-PCR analysis. It is filed as functional, organism-based. Particulars: Severe acute respiratory syndrome coronavirus 2, nCoV-2019 BetaCoV/Wuhan/WIV04/2019, Vero C1008, 48 h.

Data set [16] concerns Middle East respiratory syndrome-related coronavirus. The data set can be described thus: Antiviral activity against MERS-CoV infected in human Calu-3 2B4 cells assessed as reduction in virus-induced cytopathic effect incubated for 48 hrs by celltiterglo assay. It is filed as functional, organism-based. Particulars: Calu-3 2B4, 48 h.
The subject of data set [17] is SARS-CoV-2. The data set is described as follows: Antiviral activity against SARS-COV-2 infected in African green monkey Vero E6 cells assessed as inhibition of viral growth at 6.25 uM relative to control. Particulars: Severe acute respiratory syndrome coronavirus 2, Vero C1008. The data set is classed as functional.
Data set [18] is described as follows: Cytotoxicity against human Calu-3 2B4 cells assessed as cell growth inhibition measured after 48 hrs by celltiterglo assay. It is filed as toxicity, cell-based.

pEC50, pIC50: −log10 of the molar value. Values after ≈ are worked out from the molar mass of the structure shown.

Take `Nc1ccn([C@@H]2O[C@H](CO)[C@@H](O)C2(F)F)c(=O)n1` [GEMCITABINE]: the pEC50 in data set [1] was 5.92; in data set [2], 5.31.

In turn, `COC(=O)C[C@](O)(CCCC(C)(C)O)C(=O)O[C@@H]1C(OC)=C[C@]23CCCN2CCc2cc4c(cc2[C@H]13)OCO4` [OMACETAXINE MEPESUCCINATE] gave a pEC50 in [3] of 5.68.

The compound `CC(=O)N[C@@H]1[C@H](Oc2c3cc4cc2Oc2ccc(cc2Cl)[C@@H](O[C@@H]2O[C@@H](CO)[C@@H](O)[C@H](O)[C@@H]2NC(C)=O)[C@@H]2NC(=O)[C@H](NC(=O)[C@@H]4NC(=O)[C@H]4NC(=O)[C@@H](Cc5ccc(c(Cl)c5)O3)NC(=O)[C@H](N)c3ccc(O)c(c3)Oc3cc(O)cc4c3)c3ccc(O)c(c3)-c3c(O[C@H]4O[C@H](CO)[C@@H](O)[C@@H](O)[C@@H]4O)cc(O)cc3[C@@H](C(=O)O)NC2=O)O[C@@H](CO)[C@@H](O)[C@@H]1O` had a pIC50 in data set [4] of 5.78.

In turn, `O=C(Nc1ncc([N+](=O)[O-])s1)c1ccccc1O` [TIZOXANIDE] showed an IC50 in data set [5] of 1 µg/mL (≈ 3.77 µM).

With `CC(=O)Oc1ccccc1C(=O)Nc1ncc([N+](=O)[O-])s1` [NITAZOXANIDE], the IC50 in [6] and in [7] was 0.3 µg/mL (≈ 0.976 µM) in each case. Further, the pIC50 in [8] is 2.70; in data set [9], 2.81.

Turning to `CC[C@H]1CN2CCc3cc(OC)c(OC)cc3[C@@H]2C[C@@H]1C[C@H]1NCCc2cc(OC)c(OC)cc21` [EMETINE], in [10], the inhibition at 0.195 µM was determined as 64.9%.

IVERMECTIN showed a pIC50 in data set [11] of 5.70.

Take `NC(=O)c1ncn([C@@H]2O[C@H](CO)[C@@H](O)[C@H]2O)n1` [RIBAVIRIN]: the IC50 in [12] turned out to be 41.4 µg/mL (≈ 170 µM). In data set [13], the TCID50 is 13.7 µg/mL. The CC50 at 48 h in data set [14] is above 400 µM. The pEC50 in data set [15] was 1.96.

On to `CCC(CC)COC(=O)[C@H](C)N[P@](=O)(OC[C@H]1O[C@@](C#N)(c2ccc3c(N)ncnn23)[C@H](O)[C@@H]1O)Oc1ccccc1`, for which the pIC50 in data set [16] was 7.60. In [17], the inhibition at 6.25 µM stood at 64.9%. The CC50 at 48 h in [18] is 10 µM.
